Measurements as given in patent US20250224398A1, “GASDERMIN E EXPRESSION IN HUMAN T CELLS AS A MARKER FOR PROINFLAMMATORY T CELL FUNCTIONS” (LEIBNIZ-INSTITUT FÜR NATURSTOFF-FORSCHUNG UND …, priority 2022, published 2025).
“Also recorded” adds a separate entry of the source. Residues, ends and D or L forms follow the SMILES beside them. *: point of attachment. Cbz = O=C(OCc1ccccc1)*; CH2F = FC*

Experiments:
human Th17 cells [1] = test: Cytokine secretion by stimulated Th17 cells into culture supernatants (ELISA / Luminex); assay type: cell-based; conditions: for IL-1α secretion by Th17 cells: Th17 cells stimulated with anti-CD3 and anti-CD28 mAbs for 5 days, ELISA of supernatants
Experimental: (§1) Human T cells were cultured in RPMI 1640 medium supplemented with 1% (v/v) GlutaMAX™ Supplement, 1% (v/v) MEM nonessential Amino Acids Solution (100×), 1% (v/v) sodium pyruvate (100 mM), 0.1% 2-Mercaptoethanol (50 mM) (all from Gibco™), 1% (v/v) Penicillin-Streptomycin (Sigma-Aldrich), penicillin (500 U/ml), streptomycin (500 μg/ml), and 10% (v/v) fetal calf serum (Sigma-Aldrich). In some experiments, T cell culture was performed in the presence of recombinant cytokines (IL-6, 50 ng/ml; IL-12, 10 ng/ml; IL-4, 10 ng/ml; TGF-b, 10 ng/ml; IL-1b, 20 ng/ml; all from R&D Systems) or neutralizing antibodies (anti-IL-1a, […], BD Biosciences). […] T cells were stimulated with plate-bound anti-CD3 (2 μg/ml, clone TR66) and anti-CD28 mAbs (2 μg/ml, clone CD28.2; both from BD Biosciences) for 48 h before transfer into uncoated wells for another 3 days for a total culture period of 5 days, unless indicated otherwise in the legends. T cell clones were generated in non-polarizing conditions as described previously following single-cell deposition with fluorescence-activated cell sorting or by limiting dilution cloning (Gross, O. et al. Inflammasome activators induce interleukin-1alpha secretion via distinct pathways with differential requirement for the protease function of caspase-1. Immunity 36, 388-400, doi: 10.1016/j.immuni.2012.01.018 (2012)). Human monocytes were isolated from PBMCs by positive selection with CD14-specific MicroBeads (Miltenyi Biotec). Cells were stimulated with or without 1 μg/mL ultrapure lipopolysaccharide (LPS)-EB (t1r1-3pelps, InvivoGen) for 24 h and nigericin (10 μg/mL, InvivoGen) or ATP (5 mM, Thermo Fisher Scientific) for the last 30 mins. In some experiments, CD14^+ magnetic activated cell sorting (MACS)-sorted monocytes were differentiated into macrophages for 7 days in the presence of GM-CSF (R&D Systems).
(§2) Intracellular cytokine and transcription factor staining was performed as described before (Noster, R. et al. IL-17 and GM-CSF expression are antagonistically regulated by human T helper cells. Sci Transl Med 6, 241ra280, doi: 10.1126/scitranslmed.3008706 (2014)). Cells were stained with the following antibodies: anti-IL-1a-PE (364-3B3-14), anti-IL-4-FITC (MP4-25D2 5), anti-IL-17A-Pacific Blue (BL168), anti-IFN-g-APC-Cy7 (4S.B3), anti-IL-10-PE-Cy7 (JES3-9D7), (all from Biolegend), anti-RORgt-APC (AFKJS-9, eBioscience), anti-Ki67-BV421 (Biolegend), and anti-IL-1R1-PE (FAB269P, R&D Systems). Then, they were analyzed with a BD LSRFortessa (BD Biosciences), a CytoFLEX Flow Cytometer (Beckman Coulter) or a MACSQuant analyzer (Miltenyi Biotec). Flow cytometry data were analyzed with FlowJo software (Tree Star) or with Cytobank (Cytobank Inc.). The concentrations of cytokines in cell culture supernatants were measured by ELISA (Duoset ELISA kits from R&D Systems, Human Caspase-1SimpleStep ELISA Kit (Abcam) or by Luminex (eBioscience) according to standard protocols as indicated in the corresponding figure legends. Counting beads (CountBright™ Absolute Counting Beads, Thermo Fisher Scientific) were used to normalize for cell numbers if analysis of cumulative supernatants obtained from 5-day cell cultures was performed.

human Th17 cells [2] = test: Western blot / Jess Simple Western of Th17 cell lysates for caspase and GSDME cleavage; assay type: cell-based; conditions: for GSDME cleavage / caspase-3 cleavage: Th17 cells stimulated 5 days with anti-CD3 and anti-CD28 mAbs
Experimental: as §1
Cells were lysed in RIPA buffer (50 mM Tris, 150 mM NaCl, 1 mM EDTA, 0.1% NP-40, pH 7.5) containing protease inhibitor (Roche) and PhosphoSTOP Easypack (Roche). The protein concentrations of cell lysates were determined with a Pierce™ BCA Protein Assay Kit (Thermo Fisher Scientific™). Total protein ([…]) was boiled with 4× Laemmli sample buffer (Bio-Rad Laboratories) containing 355 mM 2-mercaptoethanol (Thermo Fisher Scientific) at 99° C. for 10 min. The supernatants and lysates were separated by SDS-polyacrylamide gel electrophoresis (PAGE) and transferred to a PVDF membrane (Bio-Rad Laboratories) by using a Mini-Protean system (Bio-Rad Laboratories) according to the manufacturer's protocol. The following primary antibodies were used for immunoblotting: mouse anti-human caspase-8 (Cell Signaling Technology), rabbit anti-human caspase-1 (Cell Signaling Technology), rabbit anti-human IL-1α (Abcam), mouse anti-human GAPDH (Merck millipore), mouse anti-human b-actin (Cell Signaling Technology), and rabbit anti-human gasdermin E (Abcam), rabbit anti-human caspase-3 (Cell Signaling Technology), mouse anti-human caspase-8 (Cell Signaling Technology), rabbit anti-human gasdermin D (Cell Signaling Technology), rabbit anti-human cleaved gasdermin D (Cell Signaling Technology), rabbit anti-NLRP3 (Cell Signaling Technology). HRP-conjugated anti-mouse and anti-rabbit IgG antibodies (Cell Signaling Technology) were used as secondary antibodies. Immunoreactive bands were detected by Pierce™ ECL Western Blotting Substrate or SuperSignal™ West Femto Maximum Sensitivity Substrate (both from Thermo Scientific™). Chemiluminescence signals were recorded with an Odyssey Imaging system (LI-COR Biosciences) and analyzed on Image Studio™ Lite (LI-COR Biosciences). Image contrast was enhanced in a linear fashion when necessary. Protein lysates were also prepared for automated Western blotting using a Jess System (ProteinSimple) according to the manufacturer's instructions. […]

human Th17 cells [3] = test: Intracellular cytokine staining and flow cytometry of Th17 cells; assay type: cell-based
Experimental: as §1, with “In some experiments, CD14^+ magnetic activated cell sorting (MACS)-sorted monocytes were differentiated into macrophages for 7 days in the presence of GM-CSF (R&D Systems).” left out
as §2, with “Cells were stained with the following antibodies: anti-IL-1a-PE (364-3B3-14), anti-IL-4-FITC (MP4-25D2 5), anti-IL-17A-Pacific Blue (BL168), anti-IFN-g-APC-Cy7 (4S.B3), anti-IL-10-PE-Cy7 (JES3-9D7), (all from Biolegend), anti-RORgt-APC (AFKJS-9, eBioscience), anti-Ki67-BV421 (Biolegend), and anti-IL-1R1-PE (FAB269P, R&D Systems).” left out

[4] = tested on: patients suffering from the rare autoinflammatory Schnitzler syndrome; conditions: treatment for 6 months; cited from earlier work
[5] = tested on: patients suffering from the rare autoinflammatory Schnitzler syndrome; test: Treatment of Schnitzler syndrome patients with IL-1β-neutralizing antibody; IL-1α secretion of ex vivo Th17 cell clones (Luminex) and clinical symptoms; assay type: in vivo, human; conditions: treatment for 6 months; Th17 cell clones restimulated with CD3 and CD28 mAbs for 5 days
Experimental: Peripheral blood mononuclear cells (PBMCs) were isolated by density gradient centrifugation using Ficoll-Paque Plus (GE Healthcare). CD4^+ T cells were isolated from fresh PBMC by positive selection with CD4-specific MicroBeads (Miltenyi Biotec) using an autoMACS Pro Separator. […]
as §2, with “Cells were stained with the following antibodies: anti-IL-1a-PE (364-3B3-14), anti-IL-4-FITC (MP4-25D2 5), anti-IL-17A-Pacific Blue (BL168), anti-IFN-g-APC-Cy7 (4S.B3), anti-IL-10-PE-Cy7 (JES3-9D7), (all from Biolegend), anti-RORgt-APC (AFKJS-9, eBioscience), anti-Ki67-BV421 (Biolegend), and anti-IL-1R1-PE (FAB269P, R&D Systems).” left out, “performed. […]” for “performed.”

SGC-7901 and MKN-45 = conditions: cited from earlier work
human monocytes = test: IL-1a secretion by LPS/nigericin stimulated monocytes (ELISA); assay type: cell-based; conditions: LPS 24 h, nigericin 30 min
Experimental: as §1, with “Human monocytes were isolated from PBMCs by positive selection with CD14-specific MicroBeads (Miltenyi Biotec). Cells were stimulated with or without 1 μg/mL ultrapure lipopolysaccharide (LPS)-EB (t1r1-3pelps, InvivoGen) for 24 h and nigericin (10 μg/mL, InvivoGen) or ATP (5 mM, Thermo Fisher Scientific) for the last 30 mins. In some experiments, CD14^+ magnetic activated cell sorting (MACS)-sorted monocytes were differentiated into macrophages for 7 days in the presence of GM-CSF (R&D Systems).” left out

[6] = Th17 cells, restimulation with PMA and ionomycin in presence or absence of BFA
[7] = anti-CD3 and anti-CD28 mAb 5 days, PMA and ionomycin restimulation

For `CC(=O)N[C@@H](Cc1ccc(O)cc1)C(=O)N[C@H](C(=O)N[C@@H](C)C(=O)N[C@@H](CC(=O)O)C(=O)CCl)C(C)C` [Ac-YVAD-CMK], the “IL-1α secretion by Th17 cells” value (human Th17 cells [1]) was “did not inhibit; also recorded: significantly elevated”.

With `CC(C)(O)c1coc(S(=O)(=O)NC(=O)Nc2c3c(cc4c2CCC4)CCC3)c1` [MCC950] the “IL-1α secretion by Th17 cells” value (human Th17 cells [1]) was “significantly reduced; also recorded: significantly inhibited”, the GSDME cleavage (human Th17 cells [2]) was “significant reduction” and the caspase-3 cleavage (human Th17 cells [2]) was “significant reduction”. The caspase-8 cleavage (human Th17 cells [2]; Th17 cells stimulated, day 5) was “less pronounced”.

With `COC(=O)CC[C@H](NC(=O)[C@H](CC(=O)OC)NC(=O)OCc1ccccc1)C(=O)N[C@H](C(=O)N[C@@H](CC(=O)OC)C(=O)CF)C(C)C` [Z-DEVD-FMK] the “IL-1α secretion by Th17 cells” value (human Th17 cells [1]) was “abrogating” and the GSDME cleavage (human Th17 cells [2]) was “reduced”.

For `C[C@H]1CCC/C=C/[C@@H]2C[C@H](O)C[C@H]2[C@H](O)/C=C/C(=O)O1` [BFA, brefeldin A], the “secretion of IL17A into the extracellular space” value (human Th17 cells [1]; [6]) was “reduced” and the “intracellular IL-1α expression” value (human Th17 cells [3]; [6]) was “not influenced”.

For `CC[C@H](C)[C@H](NC(=O)OCc1ccccc1)C(=O)N[C@@H](CCC(=O)OC)C(=O)N[C@H](C(=O)N[C@@H](CC(=O)OC)C(=O)CF)[C@@H](C)O` [Z-IETD-FMK] (Cbz-IE(OMe)TD(OMe)-CH2F), the “IL-1α secretion by Th17 cells” value (human Th17 cells [1]) was “abrogating”, the GSDME cleavage (human Th17 cells [2]) was “reduced” and the caspase-3 cleavage (human Th17 cells [2]) was “abrogation”.

In the case of `C/C=C(/C)C(=O)O[C@H]1C(C)=C2[C@H]([C@@H]1OC(=O)CCCCCCC)[C@@](C)(OC(C)=O)C[C@H](OC(=O)CCC)[C@@]1(O)[C@H]2OC(=O)[C@@]1(C)O` [thapsigargin], the “IL-1α secretion by Th17 cells” value (human Th17 cells [1]) is reported as “increased”.

In the case of “gevokizumab: IL-1β-neutralizing antibody”, the clinical symptoms [4] is given as “complete resolution” and the “IL-1α production by Th17 cells of Schnitzler syndrome patients” value [5] is given as “significant reduction”.

In the case of “canakinumab: IL-1β-neutralizing antibody”, the clinical symptoms [4] is given as “complete resolution” and the “IL-1α production by Th17 cells of Schnitzler syndrome patients” value [5] is given as “significant reduction”.

For `O=c1[nH]cc(F)c(=O)[nH]1` [5-FU], the cell viability (SGC-7901 and MKN-45; SGC-7901 and MKN-45 treated with 5-FU) is listed as “significantly decreased”, the “percentage of PI and APC Annexin-V double positive cells” value (SGC-7901 and MKN-45; after 5-FU treatment compared to control group) is listed as “elevated” and the “release of LDH” value (SGC-7901 and MKN-45) is listed as “elevated”.

With `CSCC[C@@H](C=O)NC(=O)[C@H](CC(C)C)NC(=O)[C@H](CC(C)C)NC(C)=O` [calpain inhibitor, N-Acetyl-L-leucyl-L-leucyl-L-methioninal] (Ac-Leu-Leu-Met-aldehyde) the “IL-1α secretion by Th17 cells” value (human Th17 cells [1]) was “dose-dependent reduction” and the “LPS/nigericin-induced IL-1a secretion by monocytes” value (human monocytes) was “not dependent on calpain”.

B1: recombinant IL-1α: recombinant IL-1α applied exogenously to Th17 cells (protein, UniProt P01583 113-271, looked up)
Interleukin-1 alpha: SAPFSFLSNVKYNFMRIIKYEFILNDALNQSIIRANDQYLTAAALHNLDEAVKFDMGAYKSSKDDAKITVILRISKTQLYVTAQDEDQPVLLKEMPEIPKTITGSETNLLFFWETHGTKNYFTSVAHPNLFIATKQDYWVCLAGGPPSITDFQILENQA
In the case of B1, the “IFN-γ expression by Th17 cells” value (human Th17 cells [3]; [7]) is reported as “upregulation”, the “IL-10 expression by Th17 cells” value (human Th17 cells [3]; [7]) is reported as “reduced” and the “IL-17A expression by Th17 cells” value (human Th17 cells [3]; [7]) is reported as “upregulation”.
